# Data from US12110294B2, “CD73 compounds” (Gilead Sciences, Inc., priority 2020, dated 2024).
# Biological target: T1, CD73 activity in MDA-MB-231-GFP cells (Homo sapiens, UniProt P21589)
# T1 construct: endogenous in cells; host or cells: MDA-MB-231-GFP cells
# T1 sequence (P21589 27-549): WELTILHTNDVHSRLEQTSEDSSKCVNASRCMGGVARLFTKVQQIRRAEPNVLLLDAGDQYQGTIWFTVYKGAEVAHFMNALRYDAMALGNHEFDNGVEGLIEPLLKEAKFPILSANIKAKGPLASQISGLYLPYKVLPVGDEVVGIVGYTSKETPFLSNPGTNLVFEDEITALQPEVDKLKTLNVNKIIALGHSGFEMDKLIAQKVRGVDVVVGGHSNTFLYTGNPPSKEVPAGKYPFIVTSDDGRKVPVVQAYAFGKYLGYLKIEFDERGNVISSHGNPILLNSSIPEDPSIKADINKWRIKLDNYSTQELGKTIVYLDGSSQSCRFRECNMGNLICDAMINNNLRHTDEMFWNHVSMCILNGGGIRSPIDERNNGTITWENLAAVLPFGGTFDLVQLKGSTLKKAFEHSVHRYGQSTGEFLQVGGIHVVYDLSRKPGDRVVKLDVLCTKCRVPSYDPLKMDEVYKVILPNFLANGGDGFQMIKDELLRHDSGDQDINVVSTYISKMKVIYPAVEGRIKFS
# Test: MDA-MB-231 Cell Based CD73 Activity Assay (DMEM)
# Details: 3000 cells per well, DMEM medium with 10% human plasma, overnight compound treatment, AMP 200 uM
# Method: MDA-MB-231 Cell Based CD73 Activity Assay (DMEM) MDA-MB-231-GFP cells were seeded in 384-well plates (Greiner 781946) at a density of 3000 cells per well in 50 μL of DMEM medium with 10% HP (human plasma). Cells were plated into assay plate with compounds pre-spotted, for an overnight compound treatment. 50 uL of 400 uM AMP (final concentration will be 200 uM) was added using Bio-tek dispenser. Plates were incubated for 100 mins. […] The samples were analyzed using Rapid fire.
row,EC50 [nM],Structure (SMILES)
1,4.38,"O=C(c1cccc([C@H]2C[C@@H]2c2cc(-c3c[nH]c(=O)[nH]c3=O)nn3ccnc23)c1)N1CC(C(F)(F)F)C1 (racemic) [Example 296, 5-(8-((2S,2S)-2-(3-(3-(trifluoromethyl)azetidine-1-carbonyl)phenyl)cyclopropyl)imidazo[1,2-b]pyridazin-6-yl)pyrimidine-2,4(1H,3H)-dione]"
2,1.31,"O=C(c1cccc([C@H]2C[C@@H]2c2cc(-c3c[nH]c(=O)[nH]c3=O)nn3ccnc23)c1)N1CC(F)(F)C1 (racemic) [Example 297, 5-(8-((2S,2S)-2-(3-(3,3-difluoroazetidine-1-carbonyl)phenyl)cyclopropyl)imidazo[1,2-b]pyridazin-6-yl)pyrimidine-2,4(1H,3H)-dione]"
3,2.81,"CC1(C)CN(C(=O)c2cccc([C@H]3C[C@@H]3c3cc(-c4c[nH]c(=O)[nH]c4=O)nn4ccnc34)c2)C1 (racemic) [Example 298, 5-(8-((2S,2S)-2-(3-(3,3-dimethylazetidine-1-carbonyl)phenyl)cyclopropyl)imidazo[1,2-b]pyridazin-6-yl)pyrimidine-2,4(1H,3H)-dione]"
4,24.5,O=C(c1ccc([C@H]2C[C@@H]2c2cc(-c3c[nH]c(=O)[nH]c3=O)nn3ccnc23)cc1)N1C[C@@H](F)[C@H](F)C1 (racemic) [Example 299]
5,1.34,"O=C(c1cccc([C@H]2C[C@@H]2c2cc(-c3c[nH]c(=O)[nH]c3=O)nn3ccnc23)c1)N1C[C@@H](F)[C@H](F)C1 (racemic) [Example 300, 5-(8-((2S,2S)-2-(3-((3R,4R)-3,4-difluoropyrrolidine-1-carbonyl)phenyl)cyclopropyl)imidazo[1,2-b]pyridazin-6-yl)pyrimidine-2,4(1H,3H)-dione]"
6,19.2,"O=C(c1ccc([C@H]2C[C@@H]2c2cc(-c3c[nH]c(=O)[nH]c3=O)nn3ccnc23)cc1)N1C[C@@H](F)[C@@H](F)C1 (racemic) [Example 301, 5-(8-((2S,2S)-2-(4-((3S,4R)-3,4-difluoropyrrolidine-1-carbonyl)phenyl)cyclopropyl)imidazo[1,2-b]pyridazin-6-yl)pyrimidine-2,4(1H,3H)-dione]"
7,6.99,"O=C(c1cccc([C@H]2C[C@@H]2c2cc(-c3c[nH]c(=O)[nH]c3=O)nn3ccnc23)c1)N1C[C@@H](F)[C@@H](F)C1 (racemic) [Example 302, 5-(8-((2S,2S)-2-(3-((3S,4R)-3,4-difluoropyrrolidine-1-carbonyl)phenyl)cyclopropyl)imidazo[1,2-b]pyridazin-6-yl)pyrimidine-2,4(1H,3H)-dione]"
8,27.7,"O=C(c1ccc([C@H]2C[C@@H]2c2cc(-c3c[nH]c(=O)[nH]c3=O)nn3ccnc23)cc1)N1CC(F)(F)C(F)(F)C1 (racemic) [Example 303, 5-(8-((1S,2S)-2-(4-(3,3,4,4-tetrafluoropyrrolidine-1-carbonyl)phenyl)cyclopropyl)imidazo[1,2-b]pyridazin-6-yl)pyrimidine-2,4(1H,3H)-dione]"
9,3.04,"O=C(c1cccc([C@H]2C[C@@H]2c2cc(-c3c[nH]c(=O)[nH]c3=O)nn3ccnc23)c1)N1CC(F)(F)C(F)(F)C1 (racemic) [Example 304, 5-(8-((2S,2S)-2-(3-(3,3,4,4-tetrafluoropyrrolidine-1-carbonyl)phenyl)cyclopropyl)imidazo[1,2-b]pyridazin-6-yl)pyrimidine-2,4(1H,3H)-dione]"
10,21.2,"O=C(c1ccc([C@H]2C[C@@H]2c2cc(-c3c[nH]c(=O)[nH]c3=O)nn3ccnc23)cc1)N1CCC(F)(F)C1 (racemic) [Example 305, 5-(8-((2S,2S)-2-(4-(3,3-difluoropyrrolidine-1-carbonyl)phenyl)cyclopropyl)imidazo[1,2-b]pyridazin-6-yl)pyrimidine-2,4(1H,3H)-dione]"
11,1.41,"O=C(c1cccc([C@H]2C[C@@H]2c2cc(-c3c[nH]c(=O)[nH]c3=O)nn3ccnc23)c1)N1CCC(F)(F)C1 (racemic) [Example 306, 5-(8-((2S,2S)-2-(3-(3,3-difluoropyrrolidine-1-carbonyl)phenyl)cyclopropyl)imidazo[1,2-b]pyridazin-6-yl)pyrimidine-2,4(1H,3H)-dione]"
12,96.1,"CC1(C)CCN(C(=O)c2ccc([C@H]3C[C@@H]3c3cc(-c4c[nH]c(=O)[nH]c4=O)nn4ccnc34)cc2)C1 (racemic) [Example 307, 5-(8-((2S,2S)-2-(4-(3,3-dimethylpyrrolidine-1-carbonyl)phenyl)cyclopropyl)imidazo[1,2-b]pyridazin-6-yl)pyrimidine-2,4(1H,3H)-dione]"
13,6.47,"CC1(C)CCN(C(=O)c2cccc([C@H]3C[C@@H]3c3cc(-c4c[nH]c(=O)[nH]c4=O)nn4ccnc34)c2)C1 (racemic) [Example 308, 5-(8-((1S,2S)-2-(3-(3,3-dimethylpyrrolidine-1-carbonyl)phenyl)cyclopropyl)imidazo[1,2-b]pyridazin-6-yl)pyrimidine-2,4(1H,3H)-dione]"
14,208,"O=c1[nH]cc(-c2cc([C@H]3C[C@@H]3c3ccccc3OC(F)(F)F)c3nccn3n2)c(=O)[nH]1 (racemic) [Example 309, 5-(8-((1S,2S)-2-(2-(trifluoromethoxy)phenyl)cyclopropyl)imidazo[1,2-b]pyridazin-6-yl)pyrimidine-2,4(1H,3H)-dione]"
15,11.6,"N#Cc1cncc([C@H]2C[C@@H]2c2cc(-c3c[nH]c(=O)[nH]c3=O)nn3ccnc23)c1 (racemic) [Example 311, 5-((2S,2S)-2-(6-(2,4-dioxo-1,2,3,4-tetrahydropyrimidin-5-yl)imidazo[1,2-b]pyridazin-8-yl)cyclopropyl)nicotinonitrile]"
16,4.17,"CNC(=O)c1ccc([C@H]2C[C@@H]2c2cc(-c3c[nH]c(=O)[nH]c3=O)nn3c(F)cnc23)cc1 (racemic) [Example 312, 4-((2S,2S)-2-(6-(2,4-dioxo-1,2,3,4-tetrahydropyrimidin-5-yl)-3-fluoroimidazo[1,2-b]pyridazin-8-yl)cyclopropyl)-N-methylbenzamide]"
17,11.2,"Cc1nc2cc([C@H]3C[C@@H]3c3cc(-c4c[nH]c(=O)[nH]c4=O)nn4ccnc34)ccc2s1 (racemic) [Example 321, 5-(8-((2S,2S)-2-(2-methylbenzo[d]thiazol-5-yl)cyclopropyl)imidazo[1,2-b]pyridazin-6-yl)pyrimidine-2,4(1H,3H)-dione]"
18,2.66,"Cn1ncc2ccc([C@H]3C[C@@H]3c3cc(-c4c[nH]c(=O)[nH]c4=O)nn4ccnc34)cc21 (racemic) [Example 326, 5-(8-((1S,2S)-2-(1-methyl-1H-indazol-6-yl)cyclopropyl)imidazo[1,2-b]pyridazin-6-yl)pyrimidine-2,4(1H,3H)-dione]"
19,22,"O=c1[nH]cc(-c2cc([C@H]3C[C@@H]3c3ccc(OC(F)(F)F)cc3)c3nccn3n2)c(=O)[nH]1 (racemic) [Example 359, 5-(8-((1S,2S)-2-(4-(trifluoromethoxy)phenyl)cyclopropyl)imidazo[1,2-b]pyridazin-6-yl)pyrimidine-2,4(1H,3H)-dione]"
20,5.5,"O=c1[nH]cc(-c2cc([C@H]3C[C@@H]3c3ccc(OCC(F)(F)F)cn3)c3nccn3n2)c(=O)[nH]1 (racemic) [Example 363, 5-(8-((1S,2S)-2-(5-(2,2,2-trifluoroethoxy)pyridin-2-yl)cyclopropyl)imidazo[1,2-b]pyridazin-6-yl)pyrimidine-2,4(1H,3H)-dione]"
21,34,"O=c1[nH]cc(-c2cc([C@H]3C[C@@H]3c3ncc(C(F)(F)F)s3)c3nccn3n2)c(=O)[nH]1 (racemic) [Example 364, 5-(8-((1S,2S)-2-(5-(trifluoromethyl)thiazol-2-yl)cyclopropyl)imidazo[1,2-b]pyridazin-6-yl)pyrimidine-2,4(1H,3H)-dione]"
22,16.4,"O=c1[nH]cc(-c2cc([C@H]3C[C@@H]3c3cnn(C(F)(F)F)c3)c3nccn3n2)c(=O)[nH]1 (racemic) [Example 366, 5-(8-((1S,2S)-2-(1-(trifluoromethyl)-1H-pyrazol-4-yl)cyclopropyl)imidazo[1,2-b]pyridazin-6-yl)pyrimidine-2,4(1H,3H)-dione]"
23,20.3,"O=c1[nH]cc(-c2cc([C@H]3C[C@@H]3c3cnn(C(F)F)c3)c3nccn3n2)c(=O)[nH]1 (racemic) [Example 368, 5-(8-((2S,2S)-2-(1-(difluoromethyl)-1H-pyrazol-4-yl)cyclopropyl)imidazo[1,2-b]pyridazin-6-yl)pyrimidine-2,4(1H,3H)-dione]"
24,27.5,"O=c1[nH]cc(-c2cc([C@H]3C[C@@H]3c3ccn(C(F)F)n3)c3nccn3n2)c(=O)[nH]1 (racemic) [Example 369, 5-(8-((1S,2S)-2-(1-(difluoromethyl)-1H-pyrazol-3-yl)cyclopropyl)imidazo[1,2-b]pyridazin-6-yl)pyrimidine-2,4(1H,3H)-dione]"
25,15.7,"O=c1[nH]cc(-c2cc([C@H]3C[C@@H]3c3cnn(C(F)F)c3)c3ncc(F)n3n2)c(=O)[nH]1 (racemic) [Example 370, 5-(8-((1S,2S)-2-(1-(difluoromethyl)-1H-pyrazol-4-yl)cyclopropyl)-3-fluoroimidazo[1,2-b]pyridazin-6-yl)pyrimidine-2,4(1H,3H)-dione]"
